The values that follow come from ChEMBL document CHEMBL5260858, “Targeting mycobacterial membranes and membrane proteins: Progress and limitations” (Bioorg Med Chem, 2023).

In brackets after ≈: the same amount, converted by molar mass.

This experiment concerns Mycobacterium tuberculosis. Put plainly: Antitubercular activity against Mycobacterium africanum ATCC 25420 assessed as bacterial growth inhibition by agar dilution method. As to conditions: variant africanum ATCC 25420. It is filed as functional.

Turning to `O=C1CCc2c(cccc2OC[C@]2(O)CCN(c3c(F)cc(Cl)cc3F)C[C@H]2O)N1`, the MIC turned out to be 2 ng/mL (≈ 4.56 nM).
